This passage reports Kd results from ChEMBL document CHEMBL3991601, “The target landscape of clinical kinase drugs” (Science, 2017).

For orientation: Kd means the constant that tells how readily two partners part at equilibrium.

One assay concerns the target Adenosine kinase (Homo sapiens, UniProt P55263).
Assay [1] deals with Mitotic checkpoint serine/threonine-protein kinase BUB1 (Homo sapiens, UniProt O43683).
For assay [2], the target named is Cyclin-dependent kinase 17 (Homo sapiens, UniProt Q00537).
Chain of Cyclin-dependent kinase 17 (Q00537 whole entry): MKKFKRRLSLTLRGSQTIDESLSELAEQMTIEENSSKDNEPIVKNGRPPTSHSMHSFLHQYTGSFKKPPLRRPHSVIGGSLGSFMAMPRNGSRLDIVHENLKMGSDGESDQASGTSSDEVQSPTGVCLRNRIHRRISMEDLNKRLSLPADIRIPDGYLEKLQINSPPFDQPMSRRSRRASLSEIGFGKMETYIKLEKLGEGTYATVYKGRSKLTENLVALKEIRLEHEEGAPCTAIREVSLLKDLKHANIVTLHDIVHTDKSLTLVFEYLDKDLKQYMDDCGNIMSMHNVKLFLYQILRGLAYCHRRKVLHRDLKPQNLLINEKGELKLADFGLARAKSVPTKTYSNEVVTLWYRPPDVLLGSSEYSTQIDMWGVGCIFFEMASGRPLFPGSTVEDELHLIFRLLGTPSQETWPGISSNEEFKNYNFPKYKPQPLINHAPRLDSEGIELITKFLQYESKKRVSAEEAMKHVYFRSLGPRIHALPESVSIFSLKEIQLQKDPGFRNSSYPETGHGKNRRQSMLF
The target in assay [3] is Dual specificity protein kinase CLK1 (Homo sapiens, UniProt P49759).
In the next assay the target is T1, Scaffold protein ILK (Homo sapiens, UniProt Q13418).
T1 sequence (Q13418 whole entry): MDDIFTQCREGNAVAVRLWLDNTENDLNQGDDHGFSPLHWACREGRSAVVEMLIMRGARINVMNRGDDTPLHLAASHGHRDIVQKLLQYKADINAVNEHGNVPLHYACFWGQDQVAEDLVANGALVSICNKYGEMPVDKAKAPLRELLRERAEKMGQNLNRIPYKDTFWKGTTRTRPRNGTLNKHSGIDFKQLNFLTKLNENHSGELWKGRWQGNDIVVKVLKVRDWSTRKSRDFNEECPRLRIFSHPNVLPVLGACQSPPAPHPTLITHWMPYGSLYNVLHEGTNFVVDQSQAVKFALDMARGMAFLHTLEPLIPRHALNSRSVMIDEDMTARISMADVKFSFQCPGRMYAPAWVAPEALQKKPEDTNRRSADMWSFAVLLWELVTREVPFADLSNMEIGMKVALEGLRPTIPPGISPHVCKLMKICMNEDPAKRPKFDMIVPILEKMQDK

Assay [4] has as its target Mitogen-activated protein kinase kinase kinase kinase 4 (Homo sapiens, UniProt O95819).
The target in assay [5] is S-adenosylmethionine synthase isoform type-2 (Homo sapiens, UniProt P31153).
Chain of S-adenosylmethionine synthase isoform type-2 (P31153 whole entry, canonical isoform): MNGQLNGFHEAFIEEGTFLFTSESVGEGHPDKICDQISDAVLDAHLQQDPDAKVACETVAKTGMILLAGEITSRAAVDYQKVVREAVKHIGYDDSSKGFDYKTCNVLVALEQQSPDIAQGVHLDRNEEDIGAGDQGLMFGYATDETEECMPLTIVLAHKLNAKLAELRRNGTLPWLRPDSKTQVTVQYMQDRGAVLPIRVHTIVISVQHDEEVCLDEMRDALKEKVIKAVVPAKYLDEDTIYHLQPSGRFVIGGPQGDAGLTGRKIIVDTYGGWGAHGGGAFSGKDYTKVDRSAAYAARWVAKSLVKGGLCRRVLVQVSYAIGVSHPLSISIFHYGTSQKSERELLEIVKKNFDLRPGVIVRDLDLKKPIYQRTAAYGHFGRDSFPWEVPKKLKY
Assay [6] concerns the target Maternal embryonic leucine zipper kinase (Homo sapiens, UniProt Q14680).
For assay [7], the target named is Hepatocyte growth factor receptor (Homo sapiens, UniProt P08581).
The target in assay [8] is T2, Dynamin-like GTPase OPA1, mitochondrial (Homo sapiens, UniProt O60313).
T2 sequence (O60313 whole entry): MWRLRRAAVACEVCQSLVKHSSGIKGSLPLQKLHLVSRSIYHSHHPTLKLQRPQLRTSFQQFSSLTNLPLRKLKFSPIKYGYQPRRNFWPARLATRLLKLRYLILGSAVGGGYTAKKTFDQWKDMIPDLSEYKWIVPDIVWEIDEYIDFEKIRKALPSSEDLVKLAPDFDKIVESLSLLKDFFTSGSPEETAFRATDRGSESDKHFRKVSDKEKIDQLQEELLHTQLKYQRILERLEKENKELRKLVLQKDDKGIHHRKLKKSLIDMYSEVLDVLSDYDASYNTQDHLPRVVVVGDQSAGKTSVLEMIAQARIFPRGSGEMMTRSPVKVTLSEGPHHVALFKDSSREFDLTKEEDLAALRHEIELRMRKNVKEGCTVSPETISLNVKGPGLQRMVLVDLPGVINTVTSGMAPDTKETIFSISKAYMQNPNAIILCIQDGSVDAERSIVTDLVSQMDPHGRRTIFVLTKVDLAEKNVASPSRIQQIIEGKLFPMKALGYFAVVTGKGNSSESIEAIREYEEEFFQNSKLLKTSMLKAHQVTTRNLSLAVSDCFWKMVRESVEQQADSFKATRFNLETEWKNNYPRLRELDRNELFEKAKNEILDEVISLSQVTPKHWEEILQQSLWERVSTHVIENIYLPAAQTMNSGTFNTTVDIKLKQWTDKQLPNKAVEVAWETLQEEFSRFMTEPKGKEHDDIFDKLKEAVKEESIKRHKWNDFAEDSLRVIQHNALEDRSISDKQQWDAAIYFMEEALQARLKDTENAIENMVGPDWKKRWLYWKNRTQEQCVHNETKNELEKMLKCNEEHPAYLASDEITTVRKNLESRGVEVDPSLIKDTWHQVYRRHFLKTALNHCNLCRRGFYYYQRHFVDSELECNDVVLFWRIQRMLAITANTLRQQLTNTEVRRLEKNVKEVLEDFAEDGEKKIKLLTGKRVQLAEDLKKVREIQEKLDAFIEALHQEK

Assay [9] has as its target 5'-AMP-activated protein kinase catalytic subunit alpha-1 (Homo sapiens, UniProt Q13131).
Assay [10] has as its target Rho-associated protein kinase 1 (Homo sapiens, UniProt Q13464).
Assay [11] deals with Ribosomal protein S6 kinase alpha-6 (Homo sapiens, UniProt Q9UK32).
Chain of Ribosomal protein S6 kinase alpha-6 (Q9UK32 whole entry): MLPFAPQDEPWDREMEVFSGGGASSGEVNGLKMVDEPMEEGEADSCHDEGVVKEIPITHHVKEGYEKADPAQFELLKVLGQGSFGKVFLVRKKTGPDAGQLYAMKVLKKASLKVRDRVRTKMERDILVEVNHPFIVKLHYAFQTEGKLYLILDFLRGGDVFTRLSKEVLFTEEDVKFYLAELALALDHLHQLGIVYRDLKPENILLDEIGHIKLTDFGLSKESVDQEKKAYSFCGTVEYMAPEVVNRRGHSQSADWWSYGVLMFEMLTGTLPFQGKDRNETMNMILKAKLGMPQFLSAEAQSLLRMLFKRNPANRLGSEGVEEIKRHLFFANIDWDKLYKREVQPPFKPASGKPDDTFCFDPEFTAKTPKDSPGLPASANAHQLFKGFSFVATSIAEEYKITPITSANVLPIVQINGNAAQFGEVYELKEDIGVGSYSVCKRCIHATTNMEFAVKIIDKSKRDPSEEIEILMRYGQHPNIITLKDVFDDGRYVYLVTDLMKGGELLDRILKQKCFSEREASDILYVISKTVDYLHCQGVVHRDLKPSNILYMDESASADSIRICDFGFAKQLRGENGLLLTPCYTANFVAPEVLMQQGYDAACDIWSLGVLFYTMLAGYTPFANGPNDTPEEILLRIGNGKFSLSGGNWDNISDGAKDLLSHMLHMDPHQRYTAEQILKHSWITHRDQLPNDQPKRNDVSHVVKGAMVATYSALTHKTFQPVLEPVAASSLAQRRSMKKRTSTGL
The target in assay [12] is STE20-like serine/threonine-protein kinase (Homo sapiens, UniProt Q9H2G2).
Assay [13] concerns the target Proto-oncogene tyrosine-protein kinase Src (Homo sapiens, UniProt P12931).
For assay [14], the target named is Serine/threonine-protein kinase 26 (Homo sapiens, UniProt Q9P289).
The target in assay [15] is T3, Non-receptor tyrosine-protein kinase TNK1 (Homo sapiens, UniProt Q13470).
T3 sequence (Q13470 whole entry): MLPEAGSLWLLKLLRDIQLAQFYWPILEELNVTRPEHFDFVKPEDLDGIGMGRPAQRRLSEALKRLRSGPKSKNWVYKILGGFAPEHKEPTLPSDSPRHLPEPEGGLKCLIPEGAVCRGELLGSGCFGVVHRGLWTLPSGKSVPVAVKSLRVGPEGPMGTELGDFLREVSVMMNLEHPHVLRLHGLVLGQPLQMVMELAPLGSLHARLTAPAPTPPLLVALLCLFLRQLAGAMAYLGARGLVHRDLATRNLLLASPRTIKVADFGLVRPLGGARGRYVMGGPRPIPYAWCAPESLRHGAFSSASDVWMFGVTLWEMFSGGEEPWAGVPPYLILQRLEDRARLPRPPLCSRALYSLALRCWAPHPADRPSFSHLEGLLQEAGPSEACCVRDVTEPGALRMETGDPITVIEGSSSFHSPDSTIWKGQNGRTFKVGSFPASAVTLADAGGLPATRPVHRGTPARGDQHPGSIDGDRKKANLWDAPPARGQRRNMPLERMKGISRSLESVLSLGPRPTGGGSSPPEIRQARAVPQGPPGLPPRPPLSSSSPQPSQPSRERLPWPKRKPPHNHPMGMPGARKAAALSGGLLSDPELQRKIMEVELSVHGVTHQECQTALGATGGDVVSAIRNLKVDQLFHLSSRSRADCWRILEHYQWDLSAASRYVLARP

Assay [16] has as its target Non-receptor tyrosine-protein kinase TYK2 (Homo sapiens, UniProt P29597).

The source made the active and inactive calls. For most assays here, no stated cut-off is given here; in the data, actives have a measured Kd and inactives only a lower limit.

Chain of Mitotic checkpoint serine/threonine-protein kinase BUB1 (O43683 whole entry): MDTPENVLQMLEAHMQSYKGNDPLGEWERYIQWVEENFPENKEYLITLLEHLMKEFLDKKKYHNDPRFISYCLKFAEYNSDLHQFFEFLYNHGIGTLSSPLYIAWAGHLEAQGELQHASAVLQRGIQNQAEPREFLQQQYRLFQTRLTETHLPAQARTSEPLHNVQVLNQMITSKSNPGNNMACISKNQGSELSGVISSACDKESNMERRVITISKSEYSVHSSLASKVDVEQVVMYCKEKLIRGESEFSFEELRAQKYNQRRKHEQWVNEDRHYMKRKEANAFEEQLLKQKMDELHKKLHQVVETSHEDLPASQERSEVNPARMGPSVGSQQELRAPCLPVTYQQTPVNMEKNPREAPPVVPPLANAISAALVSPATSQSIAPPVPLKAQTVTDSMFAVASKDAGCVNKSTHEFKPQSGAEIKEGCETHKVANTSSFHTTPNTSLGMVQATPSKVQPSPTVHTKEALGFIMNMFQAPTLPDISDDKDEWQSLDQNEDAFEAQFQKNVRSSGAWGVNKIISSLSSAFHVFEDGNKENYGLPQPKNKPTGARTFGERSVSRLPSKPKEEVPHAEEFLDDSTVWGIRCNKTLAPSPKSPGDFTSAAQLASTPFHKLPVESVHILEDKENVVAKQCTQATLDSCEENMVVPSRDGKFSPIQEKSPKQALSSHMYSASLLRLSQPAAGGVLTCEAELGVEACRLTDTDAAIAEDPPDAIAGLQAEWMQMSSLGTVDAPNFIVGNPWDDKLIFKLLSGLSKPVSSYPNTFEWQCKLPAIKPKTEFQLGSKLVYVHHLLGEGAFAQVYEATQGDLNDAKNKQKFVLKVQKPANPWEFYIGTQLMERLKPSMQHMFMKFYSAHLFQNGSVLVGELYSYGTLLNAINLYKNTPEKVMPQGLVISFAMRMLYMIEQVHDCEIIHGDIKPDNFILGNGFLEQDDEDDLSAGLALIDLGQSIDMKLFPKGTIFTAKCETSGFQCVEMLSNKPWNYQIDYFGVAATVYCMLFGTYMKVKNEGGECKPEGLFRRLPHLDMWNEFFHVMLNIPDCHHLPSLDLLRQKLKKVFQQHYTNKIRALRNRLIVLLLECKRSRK
Chain of Adenosine kinase (P55263 whole entry): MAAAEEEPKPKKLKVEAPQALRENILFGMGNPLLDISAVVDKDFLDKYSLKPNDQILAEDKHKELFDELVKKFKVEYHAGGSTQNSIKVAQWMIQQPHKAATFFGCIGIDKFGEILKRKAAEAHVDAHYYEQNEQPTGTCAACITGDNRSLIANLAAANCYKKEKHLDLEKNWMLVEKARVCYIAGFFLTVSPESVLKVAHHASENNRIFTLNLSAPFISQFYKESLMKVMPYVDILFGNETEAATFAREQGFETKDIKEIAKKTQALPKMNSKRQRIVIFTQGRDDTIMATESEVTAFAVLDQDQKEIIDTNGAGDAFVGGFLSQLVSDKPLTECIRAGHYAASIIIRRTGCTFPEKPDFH
Chain of Rho-associated protein kinase 1 (Q13464 whole entry): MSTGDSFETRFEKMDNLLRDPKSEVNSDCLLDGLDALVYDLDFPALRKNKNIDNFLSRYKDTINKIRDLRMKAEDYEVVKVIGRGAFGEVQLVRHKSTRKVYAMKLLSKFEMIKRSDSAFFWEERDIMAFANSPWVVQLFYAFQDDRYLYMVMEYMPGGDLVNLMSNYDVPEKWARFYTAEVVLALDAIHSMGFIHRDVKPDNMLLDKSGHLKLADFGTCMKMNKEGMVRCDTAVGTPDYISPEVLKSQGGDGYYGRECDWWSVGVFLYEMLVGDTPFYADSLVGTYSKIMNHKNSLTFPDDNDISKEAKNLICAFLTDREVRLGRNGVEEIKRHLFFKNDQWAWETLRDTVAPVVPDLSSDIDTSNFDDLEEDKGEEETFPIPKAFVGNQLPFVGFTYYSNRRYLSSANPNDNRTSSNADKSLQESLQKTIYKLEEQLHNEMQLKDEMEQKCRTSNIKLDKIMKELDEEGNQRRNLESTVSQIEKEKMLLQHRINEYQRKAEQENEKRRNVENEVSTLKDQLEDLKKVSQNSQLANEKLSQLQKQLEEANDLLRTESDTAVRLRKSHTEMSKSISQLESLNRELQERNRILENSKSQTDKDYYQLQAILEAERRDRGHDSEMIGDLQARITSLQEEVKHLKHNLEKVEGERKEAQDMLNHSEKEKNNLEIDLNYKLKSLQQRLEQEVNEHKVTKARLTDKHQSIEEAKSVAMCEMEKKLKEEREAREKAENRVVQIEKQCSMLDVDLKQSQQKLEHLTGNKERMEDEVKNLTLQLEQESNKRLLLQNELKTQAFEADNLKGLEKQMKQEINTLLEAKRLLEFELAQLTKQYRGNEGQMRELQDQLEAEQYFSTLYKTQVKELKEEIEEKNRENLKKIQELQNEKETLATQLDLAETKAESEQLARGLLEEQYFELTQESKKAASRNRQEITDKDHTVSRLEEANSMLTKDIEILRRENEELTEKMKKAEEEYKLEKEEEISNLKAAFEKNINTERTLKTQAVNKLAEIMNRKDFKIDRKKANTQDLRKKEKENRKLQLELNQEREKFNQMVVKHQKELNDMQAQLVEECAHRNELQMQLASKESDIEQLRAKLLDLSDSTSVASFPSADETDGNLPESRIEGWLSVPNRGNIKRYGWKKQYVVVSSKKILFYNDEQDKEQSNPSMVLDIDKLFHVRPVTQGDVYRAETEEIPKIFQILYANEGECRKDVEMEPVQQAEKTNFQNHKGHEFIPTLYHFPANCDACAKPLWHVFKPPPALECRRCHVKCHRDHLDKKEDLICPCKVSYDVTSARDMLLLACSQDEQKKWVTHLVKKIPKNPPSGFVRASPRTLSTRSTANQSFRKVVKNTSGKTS
Chain of Proto-oncogene tyrosine-protein kinase Src (P12931 2-536 limits assumed): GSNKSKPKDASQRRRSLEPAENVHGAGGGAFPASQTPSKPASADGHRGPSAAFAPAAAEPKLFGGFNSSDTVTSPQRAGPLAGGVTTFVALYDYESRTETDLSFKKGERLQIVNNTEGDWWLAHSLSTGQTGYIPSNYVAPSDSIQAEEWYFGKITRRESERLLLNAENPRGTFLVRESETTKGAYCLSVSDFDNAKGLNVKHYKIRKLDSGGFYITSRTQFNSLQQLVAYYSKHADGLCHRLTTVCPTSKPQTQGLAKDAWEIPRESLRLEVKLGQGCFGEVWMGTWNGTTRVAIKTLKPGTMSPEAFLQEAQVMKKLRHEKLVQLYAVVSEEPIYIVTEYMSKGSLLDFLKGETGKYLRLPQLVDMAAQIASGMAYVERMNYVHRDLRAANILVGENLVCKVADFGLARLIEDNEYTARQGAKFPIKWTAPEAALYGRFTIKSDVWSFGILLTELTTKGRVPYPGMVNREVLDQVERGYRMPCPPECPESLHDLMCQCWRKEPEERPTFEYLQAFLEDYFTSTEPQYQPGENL

For `COc1cc2ncnc(Oc3cccc(NC(=O)Nc4cc(C(C)(C)C(F)(F)F)on4)c3)c2cc1OC` [CEP-32496], the Kd (on Adenosine kinase; in assay [1]; in assay [2]; in [3]; on Scaffold protein ILK; in assay [4]) was > 30 µM (inactive) each time. In addition, the Kd in assay [5], in [6], in assay [7], in assay [8], in assay [9] and in [10] was > 30 µM (inactive) each time. In addition, the Kd in [11], in [12], in assay [13], in assay [14], in [15] and in [16] was > 30 µM (inactive) in each case.

Take `Cc1cc(Nc2ncc(Cl)c(Nc3ccccc3S(=O)(=O)C(C)C)n2)c(OC(C)C)cc1C1CCNCC1` [CERITINIB]: the Kd on Adenosine kinase is > 30 µM (inactive); in assay [1], > 30 µM (inactive); in [2] it was > 30 µM (inactive); in [3], 1.06 µM; on Scaffold protein ILK, > 30 µM (inactive); in [4], > 30 µM (inactive). The Kd in assay [5], in [6], in [7], in assay [8], in assay [9] and in [10] was > 30 µM (inactive) each time. In addition, the Kd in assay [11] was > 30 µM (inactive); in assay [12], > 30 µM (inactive); in [13], > 30 µM (inactive); in assay [14], > 30 µM (inactive); in assay [15], 0.027 µM (active); in assay [16], > 30 µM (inactive).

As for `COc1c(OCCCN2CCOCC2)ccc2c1N=C(NC(=O)c1cnc(N)nc1)N1CCN=C21` [COPANLISIB], the Kd (at Adenosine kinase; in [1]; in assay [2]; in assay [3]; at Scaffold protein ILK; in assay [4]) was > 30 µM (inactive) throughout. For the same molecule, the Kd in assay [5], in [6], in assay [7], in [8], in [9] and in [10] was > 30 µM (inactive) each time. Further, the Kd in assay [11], in assay [12], in [13], in assay [14], in assay [15] and in [16] was > 30 µM (inactive) each time.

`COCC(=O)NC/C=C/c1ccc2ncnc(Nc3ccc(Oc4ccc(C)nc4)c(C)c3)c2c1` [CP-724714]: the Kd (on Adenosine kinase; in assay [1]; in [2]; in assay [3]; on Scaffold protein ILK; in [4]) was > 30 µM (inactive) in each case. Besides, the Kd in assay [5], in assay [6], in assay [7], in assay [8], in [9] and in [10] was > 30 µM (inactive) in each case. Moreover, the Kd in assay [11], in assay [12], in assay [13], in assay [14], in assay [15] and in [16] was > 30 µM (inactive) throughout.

For the molecule `C#Cc1cccc(Nc2ncnc3cc(OC)c(OCCCCCCC(=O)NO)cc23)c1` [CUDC-101], the Kd at Adenosine kinase was > 30 µM (inactive); in [1] it was 0.961 µM (active); in assay [2] it was > 30 µM (inactive); in assay [3], > 30 µM (inactive); on Scaffold protein ILK, > 30 µM (inactive); in assay [4] it was > 30 µM (inactive). In addition, the Kd in assay [5], in assay [6], in [7], in [8], in assay [9] and in [10] was > 30 µM (inactive) each time. Further, the Kd in [11], in assay [12], in assay [13], in [14], in assay [15] and in assay [16] was > 30 µM (inactive) each time.

Regarding `Cc1cccc(-c2nn3c(c2-c2ccnc4ccc(C(N)=O)cc24)CCC3)n1` [GALUNISERTIB], the Kd on Adenosine kinase is > 30 µM (inactive); in assay [1], > 30 µM (inactive); in [2], > 30 µM (inactive); in assay [3] it was > 30 µM (inactive); at Scaffold protein ILK, > 30 µM (inactive); in [4], 1.69 µM (active). Also, the Kd in assay [5], in assay [6], in [7], in assay [8], in assay [9] and in assay [10] was > 30 µM (inactive) in each case. Also, the Kd in assay [11], in [12], in [13], in [14], in assay [15] and in [16] was > 30 µM (inactive) throughout.
